Consider four compounds from paper PMC12786457, “Studies on the Complexation of Platinum(II) by Some 4-Nitroisothiazoles and the Cytotoxic Activity of the Resulting Complexes” (Molecules, 2025).

Data set [1] can be described thus: TLC Rf as a measure of relative lipophilicity. Format: physicochemical. As to conditions: silica gel TLC Al foils.
Data set [2] relates to ES-2 (ovarian adenocarcinoma). As to the kind of experiment: SRB (sulforhodamine B) viability assay, ES-2. It counts as cell-based, human. As for the experimental part: (§1) The cytotoxicity of the complexes C1–C5 was estimated by examining cell viability using the sulforhodamine B assay. […] However, due to the very poor solubility of the most polar complex C5 in acetone, its initial solution had to be prepared in polar N,N-dimethylacetamide (DMA) (see Section 3.7). Cisplatin was used as the reference drug. The results are presented as IC50 (50% inhibitory concentration), i.e., concentrations that reduce cell survival by 50%. The test was conducted on three cancer cell lines and one normal healthy cell line, namely, breast adenocarcinoma (MCF-7), ovarian adenocarcinoma (ES-2), lung adenocarcinoma (A549), and murine embryonic fibroblast (BALB/3T3).
(§2) Three solid tumor cell lines were used in this study: MCF-7 (breast adenocarcinoma), ES-2 (ovarian adenocarcinoma), and A549 (lung adenocarcinoma). The BALB/3T3 (mouse embryonic fibroblast) cell line was used as a comparative nonpathological tissue. All cell lines were purchased from the American Type Culture Collection (ATCC, Rockville, MD, USA). The preparation of cell cultures for cytotoxicity experiments is described in detail in the following article.
(§3) The initial solutions for subsequent dilutions in biological medium were prepared in a similar manner as described previously. […] The complex C5 was dissolved in the dimethylacetamide (DMA). All the initial solutions were prepared ex tempore and then were added to the culture medium 1:9 (v/v) to obtain a stock solution of 1 mg/mL.
(§4) The test was prepared and performed in the same manner as detailed in the following cited works.

Data set [3] has as its system A549 (lung adenocarcinoma). Put plainly: SRB (sulforhodamine B) viability assay, A549. Format: cell-based, human. As to conditions: for IC50 / IC50 ± SD, A549 (Lung), Hypoxia: SRB assay. As for the experimental part:
as §1, §2, §3, §4
(In general: Sulforhodamine B stains cellular protein and so reports cell mass.)

A short description of data set [4]: Reactivity with L-glutathione (GSH), UV photometry at 260 nm. As to conditions: for Half-time, t1/2 of reaction with GSH: 2 mM GSH, 10 mmol/L NaCl, 10 mmol/L Tris x HCl pH 7.4, 37 °C, UV 260 nm. Format: in vitro ADME. From the text:
Deactivation of platinum anticancer drugs occurs in the organism at both systemic and intracellular levels. After intravenous administration, these drugs undergo a series of metabolic processes, and the concentration of their active forms can be reduced by various mechanisms. At the systemic level, the first step in deactivation is plasma protein binding: Platinum drugs rapidly bind to plasma proteins (over 90%), especially albumin [32]. […] At the cellular level, platinum drugs are neutralized by binding to intracellular proteins and peptides such as glutathione and metallothionein [33]. Binding to peptide and protein thiol and thioether moieties, which are the primary binding sites for such reactions, prevents the drug from reaching DNA and may be responsible for its nephrotoxicity. As in previous studies, we assessed the susceptibility of the tested compounds to this type of inactivation in the cancer tissues by measuring the half-life of the compound in an aqueous solution containing a physiological concentration of the reduced form of glutathione (GSH) using UV photometry at a wavelength of 260 nm similarly as in Hagrman et al.. Using the same methodology allowed us to directly compare the GHS reactivity of nitroisothiazole compounds with their pyrazole and isoxazole analogues. As a control, the UV spectra of complexes C1 and C2 in dioxane were recorded to check whether there was excessive absorption at a wavelength of 260 nm, which could interfere with the measurement of the reaction of the complexes with glutathione (visualization of the UV spectra can be found in the Supplementary Materials, Figures S46 and S47).
The experiment was conducted in a similar manner to that described in previous publications. First, 30 μL of 60 mM solution of the appropriate complex (cis C1, trans C2, trans C3 and trans C4) in purified and anhydrous distilled dioxane was mixed with 3 mL of a 2 mM solution of reduced L-glutathione (GSH) in an argon-saturated medium containing 10 mmol/L NaCl and 10 mmol/L Tris x HCl buffer, pH 7.4, to achieve a final concentration of 6 µM of the tested complexes. The measurement was carried out at 37 °C. The progress of the reaction was monitored by UV absorption spectrometry at a wavelength of 260 nm. Dioxane was used to dissolve the tested Pt complexes due to the lack of UV absorption of this solvent at the used wavelength. The GSH solution was saturated with argon to remove oxygen and thus prevent oxidation of GSH with the formation of S-S bonds, which would interfere with the measurement results.

Where [5] appears, read: hypoxia, read-out: IC50 ± SD, ES-2 (Ovarian), Hypoxia.
Where [6] appears, read: normoxia, read-out: IC50 ± SD, ES-2 (Ovarian), Normoxia.
The mark [7] stands for this setting: normoxia, read-out: IC50 ± SD, A549 (Lung), Normoxia.

Where two headings read alike, the source gives them in different places.

As for `Cc1nscc1[N+](=O)[O-].Cc1nscc1[N+](=O)[O-].[Cl][Pt][Cl]` [C2, trans-Dichlorobis(3-methyl-4-nitroisothiazole)platinum(II)], the “Rf, Eluent: Chlorofom:Acetone Ratio 9:7 Vol.” value in data set [1] is given as 0.756. Further, the IC50 (usually the midpoint of a concentration-inhibition curve) in data set [2] (setting [5]) is 1.1 ± 0.34 µM; in data set [2] (setting [6]), 2.14 ± 2.21 µM; in data set [3] (hypoxia, read-out: IC50 ± SD, A549 (Lung), Hypoxia) it was 6.52 ± 2.28 µM; in data set [3] (setting [7]) it was 6.34 ± 1.47 µM. Further, the “selectivity index (SI), healthy cells vs A549” value in data set [3] (ratio of cytotoxicity towards healthy BALB/3T3 cells to cytotoxicity towards A549) came to 0.2. The “Half-time, t1/2 of reaction with GSH” value in data set [4] is reported as roughly 29 min. For the same compound, the “reaction with GSH, times faster than oxaliplatin” value in data set [4] (from half-times of Table 5) was “about 1.5 times”.
Consider `COC(=O)c1snc(C)c1[N+](=O)[O-].Cc1nscc1[N+](=O)[O-].[Cl][Pt][Cl]` [C3, trans-Dichloro-3-methyl-4-nitroisothiazole 3-Methyl-4-nitro-5-(methoxycarbonyl)isothiazole Platinum(II)], for which the “Rf, Eluent: Chlorofom:Acetone Ratio 9:7 Vol.” value in data set [1] turned out to be 0.814. The IC50 in data set [2] (setting [5]) was 4.02 ± 2.47 µM; in data set [2] (setting [6]) it was 3.9 ± 2.68 µM; in data set [3] (setting [7]), 5.74 ± 0.65 µM. Besides, the “IC50 ± SD, A549 (Lung), Hypoxia” value in data set [3] (hypoxia) is “inactive”. The results for the “Half-time, t1/2 of reaction with GSH” value in data set [4] and in data set [4] (listed as trans-complex C3) were “about 20 s” and 0.333 min, respectively. In addition, in data set [4] (from half-times of Table 5), the “reaction with GSH, times faster than transplatin” value stood at 12 times.
`COC(=O)c1snc(C)c1[N+](=O)[O-].COC(=O)c1snc(C)c1[N+](=O)[O-].[Cl][Pt][Cl]` [C4, trans-Dichlorobis(3-methyl-4-nitro-5-(methoxycarbonyl)isothiazole)platinum(II)]: in data set [1], the “Rf, Eluent: Chlorofom:Acetone Ratio 9:7 Vol.” value amounted to 0.849. Also, the figures for the IC50 in data set [2] (setting [5]), in data set [2] (setting [6]) and in data set [3] (setting [7]) were 5.44 ± 1.64 µM, 3.89 ± 1.62 µM and 40.3 ± 19.9 µM, respectively. Further, the “IC50 ± SD, A549 (Lung), Hypoxia” value in data set [3] (hypoxia) is “inactive”. For the same compound, the “Half-time, t1/2 of reaction with GSH” value in data set [4] is roughly 0.167 min. The “reaction with GSH, times faster than transplatin” value in data set [4] (from half-times of Table 5) amounted to 24 times.
In the case of “Dichlorobis(3-methyl-4-nitroisothiazole)platinum(II) [C1]”, in data set [1], the “Rf, Eluent: Chlorofom:Acetone Ratio 9:7 Vol.” value worked out at 0.442. Also, the IC50 in data set [2] (setting [5]) came to 6.37 ± 1.69 µM; in data set [2] (setting [6]), 7.29 ± 1.42 µM; in data set [3] (setting [7]) it was 31.4 ± 18.8 µM. Also, in data set [3] (hypoxia), the “IC50 ± SD, A549 (Lung), Hypoxia” value was “inactive”. The “Half-time, t1/2 of reaction with GSH” value in data set [4] is “about 16 min”; in data set [4] (listed as cis-complex C1) it was 16 min. In addition, the “reaction with GSH, times faster than cisplatin” value in data set [4] (from half-times of Table 5) is listed as “approximately three”.
